Measurements published in patent US20090004211A1, “METHOD FOR EFFECTING LOCALIZED, NON-SYSTEMIC AND SYSTEMIC, IMMUNOGENIC TREATMENT OF CANCER USING ERP57 TRANSLOCATION” (priority 2006, published 2009).
“Also recorded” adds a separate entry of the source. Non-standard residues stand in square brackets, D forms with d. Residues, ends and D or L forms follow the SMILES beside them. *: point of attachment. Nle = CCCC[C@H](N)C(=O)O; Cbz = O=C(OCc1ccccc1)*; CH2F = FC*

Tests used:
CT26 tumor cells = test: Anti-tumor vaccination: treated dying CT26 cells injected s.c., challenge with live tumor cells in opposite flank; assay type: in vivo, BALB/c mice
CT26 tumors = test: Treatment of established CT26 tumors by single intratumoral injection; assay type: in vivo, BALB/c mice
Description: All animals were maintained in specific pathogen-free conditions and all experiments followed the FELASA guidelines. 3×10^6 treated CT26 cells were inoculated s.c. in […] of PBS into BALB/c six-week-old female mice, into the lower flank, while 5×10^5 untreated control cells were inoculated into the contralateral flank. For the tumorigenicity assay, 3×10^6 treated or untreated CT26 cells were injected s.c. into nu/nu mice. To assess the specificity of the immune response against CT26, injections of either 5×10^5 or 5×10^6 of CT26 were made (for the mice immunized in a standard protocol or vaccination protocol, respectively). Tumors were evaluated weekly, using a caliper. In a series of experiments, BALB/c (wild type or nu/nu) carrying palpable CT26 tumors (implanted 14 days before for wild type or 7 days before for nu/nu mice by injection of […] tumor cells) received a single intratumoral injection of […] PBS containing the same concentration of anti-cancer agents and PP1/GADD34 inhibitors as those used in vitro, as well as rCRT ([…]). For the assessment of local immune response, 3×10^5 cells were injected in 50 μl into the footpad of mice. Five days later, mice were sacrificed and the draining lymph nodes were harvested. 1×10^5 lymph node cells were cultured for 4 days alone or with 1×10^4 CT26 cells killed by a freeze-thaw cycle in 200 μl in round-bottom 96-well plates. IFN-γ was determined by ELISA.

CRT = test: Fluorescence detection of cell surface CRT (cytofluorometry); conditions: for time after treatment at which CRT exposure is detectable: intact cells; for CRT exposure at cell surface: CT26 cells, agent alone; for CRT exposure of cells treated with etoposide plus inhibitor: in combination with etoposide
Description: CT26 cells (on a glass slide or in 12-well plates) were first washed with FACS buffer (1×PBS, 5% fetus bovine serum, and 0.1% sodium azide) and then incubated with rabbit anti-mouse CRT antibody (1:100, Stressgen), or rabbit anti-mouse ERP57 antibody (abcam) in FACS buffer at 4° C. for 30 min. […] After washing three times with FACS buffer, surface CRT and ERP57 was detected by cytofluorometric analysis on a FACS Vantage. In some experiments, cells were fixed with 4% paraformaldehyde, counterstained with Hoechst (2 μM; Sigma), followed by fluorescence microscopic assessment.
Trypsinized CT26 cells were enucleated as described. Briefly, cells were treated in 2 ml of complete RPMI medium containing cytochalasin B (10 μg/ml; Sigma) and DNase I (80 U/ml; Sigma). […] Gradients containing cell suspensions were centrifugated in a prewarmed SW41 Beckman rotor at 25 000 rpm for 20 minutes at 30° C. […] Then the cell surface CRT was detected (see materials and methods) and the viability was determined by with propidium iodine staining (2 μg/ml, Sigma) for 5 min followed by cytofluorometric analysis.

ERP57 [1] = test: Fluorescence detection of cell surface ERP57 (cytofluorometry); assay type: cell-based, mouse; conditions: for time after treatment at which ERP57 exposure is detectable: intact cells; for ERP57 exposure at cell surface: CT26 cells, agent alone; for ERP57 exposure of cells treated with etoposide plus inhibitor: in combination with etoposide
Description: CT26 cells (on a glass slide or in 12-well plates) were first washed with FACS buffer (1×PBS, 5% fetus bovine serum, and 0.1% sodium azide) and then incubated with rabbit anti-mouse CRT antibody (1:100, Stressgen), or rabbit anti-mouse ERP57 antibody (abcam) in FACS buffer at 4° C. for 30 min. Cells reacted with anti-rabbit IgG (H+L) Alexa fluor 488-conjugates (1:500) in FACS buffer at 4° C. for 30 min. After washing three times with FACS buffer, surface CRT and ERP57 was detected by cytofluorometric analysis on a FACS Vantage. In some experiments, cells were fixed with 4% paraformaldehyde, counterstained with Hoechst (2 μM; Sigma), followed by fluorescence microscopic assessment.

ERP57 [2] = test: as above; assay type: cell-based, mouse; conditions: murine MCA205, B16F10, J558; human HeLa, A549, HCT116
[3] = CT26 cells treated in vitro with agent alone, immunocompetent BALB/c mice
[4] = agent alone, immunocompetent BALB/c mice, 14-day-old CT26 tumors
[5] = agent alone, immunodeficient nu/nu mice
[6] = pre-incubation for 1 h with the inhibitor
[7] = immunodeficient (athymic) animals

CO[C@@]12[C@H](COC(N)=O)C3=C(C(=O)C(C)=C(N)C3=O)N1C[C@@H]1N[C@@H]12 [mitomycin C]
immunogenicity of cell death (protection against tumor growth on rechallenge) (CT26 tumor cells; [3]): failed to induce immunogenic apoptosis | therapeutic effect of single intratumoral injection (CT26 tumors; mouse, in vivo): no major therapeutic effect

COC(=O)C[C@H](NC(=O)[C@H](C)NC(=O)[C@@H](NC(=O)OCc1ccccc1)C(C)C)C(=O)CF [Z-VAD-fmk] (Cbz-Val-Ala-Asp(OMe)-CH2F)
effect on immunogenicity of doxorubicin-elicited cell death (CT26 tumor cells; combined with doxorubicin): reduces the immunogenicity of doxorubicin-elicited cell death

CC(=O)[C@]1(O)Cc2c(O)c3c(c(O)c2[C@@H](O[C@H]2C[C@H](N)[C@H](O)[C@H](C)O2)C1)C(=O)c1ccccc1C3=O [idarubicin]
time after treatment at which CRT exposure is detectable (CRT): 1 h | immunogenicity of cell death (protection against tumor growth on rechallenge) (CT26 tumor cells; [3]): elicited immunogenic cell death

O=C1[O][Pt]2([NH][C@@H]3CCCC[C@H]3[NH]2)[O]C1=O [oxaliplatin]
time after treatment at which CRT exposure is detectable (CRT): 1 h | time after treatment at which ERP57 exposure is detectable (ERP57 [1]): 1 h

CC(C)C[C@@H](C=O)NC(=O)[C@H](CC(C)C)NC(=O)[C@H](CC(C)C)NC(=O)OCc1ccccc1 [MG132] (Cbz-Leu-Leu-Leu-aldehyde)
immunogenicity of cell death (protection against tumor growth on rechallenge) (CT26 tumor cells; [3]): failed to induce immunogenic apoptosis

CC(=O)N[C@@H](CSC(=O)[C@]1([C@@H](O)C(C)C)NC(=O)[C@H](C)[C@@H]1O)C(=O)O [loctacystin]
immunogenicity of cell death (protection against tumor growth on rechallenge) (CT26 tumor cells; [3]): failed to induce immunogenic apoptosis

C[C@H]1CCC/C=C/[C@@H]2C[C@H](O)C[C@H]2[C@H](O)/C=C/C(=O)O1 [brefeldin]
immunogenicity of cell death (protection against tumor growth on rechallenge) (CT26 tumor cells; [3]): failed to induce immunogenic apoptosis

CC[C@@]1(O)C(=O)OCc2c1cc1n(c2=O)Cc2cc3ccccc3nc2-1 [camptothecin]
immunogenicity of cell death (protection against tumor growth on rechallenge) (CT26 tumor cells; [3]): failed to induce immunogenic apoptosis

COc1cc([C@@H]2c3cc4c(cc3[C@@H](O[C@@H]3O[C@@H]5CO[C@@H](C)O[C@H]5[C@H](O)[C@H]3O)[C@H]3COC(=O)[C@H]23)OCO4)cc(OC)c1O [etoposide]
immunogenicity of cell death (protection against tumor growth on rechallenge) (CT26 tumor cells; [3]): failed to induce immunogenic apoptosis; also recorded: poorly immunogenic | therapeutic effect of single intratumoral injection (CT26 tumors; [4]): no major therapeutic effect | therapeutic effect of single intratumoral injection (CT26 tumors; [5]): no major therapeutic effect

CCCCCCCCCCCCC/C=C/[C@@H](O)[C@H](CO)NC(=O)CCCCCCCCCCCCCCC [C16-ceramide]
time after treatment at which CRT exposure is detectable (CRT): 1 h | time after treatment at which ERP57 exposure is detectable (ERP57 [1]): 1 h

C/C1=C/C(=O)O[C@@H]2C[C@@H](CC[C@H](C)/C=C\C=C\CC1)O[C@@](O)([C@@H]1CSC(=O)N1)C2 [latrunculin A]
effect on CRT exposure induced by anthracyclines and PP1/GADD34 inhibitors (CRT; [6]): abolished | effect on ERP57 exposure induced by anthracyclines and PP1/GADD34 inhibitors (ERP57 [1]; [6]): abolished

CCOc1ccc(-c2nc3ccc(-c4nc5ccc(N6CCN(C)CC6)cc5[nH]4)cc3[nH]2)cc1 [Hoechst 33342]
immunogenicity of cell death (protection against tumor growth on rechallenge) (CT26 tumor cells; [3]): failed to induce immunogenic apoptosis

CC(=O)O[C@H]1C(=O)[C@@]2(C)[C@H]([C@H](OC(=O)c3ccccc3)[C@]3(O)C[C@H](OC(=O)[C@H](O)[C@@H](NC(=O)c4ccccc4)c4ccccc4)C(C)=C1C3(C)C)[C@]1(OC(C)=O)CO[C@@H]1C[C@@H]2O [paclitaxel]
time after treatment at which CRT exposure is detectable (CRT): 1 h | time after treatment at which ERP57 exposure is detectable (ERP57 [1]): 1 h

O=C(/C=C/c1ccccc1)NC(NC(=S)Nc1cccc2cccnc12)C(Cl)(Cl)Cl (centres unmarked) [salubrinal]
CRT exposure at cell surface (CRT): efficiently induced | CRT exposure of cells treated with etoposide plus inhibitor (CRT): greatly enhanced | CRT exposure on panel of tumor cell lines (CRT; murine MCA205, B16F10, J558, human HeLa, A549, HCT116): induced | ERP57 exposure on panel of tumor cell lines (ERP57 [2]): induced | immunogenicity of cell death (protection against tumor growth on rechallenge) (CT26 tumor cells; [3]): not sufficient to induce immunogenic cell death | immunogenic potential of cells succumbing to etoposide or mitomycin C (CT26 tumor cells; inhibitor combined with etoposide or mitomycin C): greatly enhanced | ERP57 exposure at cell surface (ERP57 [1]): efficiently induced | ERP57 exposure of cells treated with etoposide plus inhibitor (ERP57 [1]): greatly enhanced | therapeutic effect of single intratumoral injection (CT26 tumors; [4]): no major therapeutic effect | therapeutic effect of single intratumoral injection (CT26 tumors; [5]): no major therapeutic effect | therapeutic effect of intratumoral injection combined with etoposide or mitomycin C (CT26 tumors; immunocompetent animals): stable disease or complete tumor regression | therapeutic effect of intratumoral injection combined with etoposide or mitomycin C (CT26 tumors; [7]): not in athymic

tunicamycin
immunogenicity of cell death (protection against tumor growth on rechallenge) (CT26 tumor cells; [3]): failed to induce immunogenic apoptosis

CC(=O)O[C@@]12CO[C@@H]1C[C@H](O)[C@@]1(C)C(=O)[C@H](O)C3=C(C)[C@@H](OC(=O)[C@H](O)[C@@H](NC(=O)OC(C)(C)C)c4ccccc4)C[C@@](O)([C@@H](OC(=O)c4ccccc4)[C@H]21)C3(C)C [taxotere, Docetaxel]
time after treatment at which CRT exposure is detectable (CRT): 1 h | time after treatment at which ERP57 exposure is detectable (ERP57 [1]): 1 h

CCCCCCCCCCCCC/C=C/[C@@H](O)[C@H](CO)NC(C)=O [C2 ceramide]
immunogenicity of cell death (protection against tumor growth on rechallenge) (CT26 tumor cells; [3]): failed to induce immunogenic apoptosis

C/C=C(/C)C(=O)O[C@H]1C(C)=C2[C@H]([C@@H]1OC(=O)CCCCCCC)[C@@](C)(OC(C)=O)C[C@H](OC(=O)CCC)[C@@]1(O)[C@H]2OC(=O)[C@@]1(C)O [thapsigargin]
immunogenicity of cell death (protection against tumor growth on rechallenge) (CT26 tumor cells; [3]): failed to induce immunogenic apoptosis

CCCC[C@@H](C=O)NC(=O)[C@H](CC(C)C)NC(=O)[C@H](CC(C)C)NC(C)=O [ALLN] (Ac-Leu-Leu-[Nle]-aldehyde)
immunogenicity of cell death (protection against tumor growth on rechallenge) (CT26 tumor cells; [3]): failed to induce immunogenic apoptosis

arsenite
immunogenicity of cell death (protection against tumor growth on rechallenge) (CT26 tumor cells; mouse, in vivo): failed to induce immunogenic apoptosis

CO[C@H]([C@H](O)CC(=O)[C@@H](C)[C@@H](O)CC[C@@H](C)[C@@H]1O[C@]2(CC[C@@H](C)[C@H](CC[C@H](C)C(C)=O)O2)CC[C@@H]1C)[C@H](OC(=O)C[C@@H](O)C1=C(C)C(=O)OC1=O)C(C)C [tautomycin]
CRT exposure at cell surface (CRT): efficiently induced | CRT exposure of cells treated with etoposide plus inhibitor (CRT): greatly enhanced | immunogenicity of cell death (protection against tumor growth on rechallenge) (CT26 tumor cells; [3]): not sufficient to induce immunogenic cell death | immunogenic potential of cells succumbing to etoposide or mitomycin C (CT26 tumor cells; mouse, in vivo): greatly enhanced | ERP57 exposure at cell surface (ERP57 [1]): efficiently induced | ERP57 exposure of cells treated with etoposide plus inhibitor (ERP57 [1]): greatly enhanced | therapeutic effect of single intratumoral injection (CT26 tumors; [4]): no major therapeutic effect | therapeutic effect of single intratumoral injection (CT26 tumors; [5]): no major therapeutic effect | therapeutic effect of intratumoral injection combined with etoposide or mitomycin C (CT26 tumors; immunocompetent animals): stable disease or complete tumor regression | therapeutic effect of intratumoral injection combined with etoposide or mitomycin C (CT26 tumors; [7]): not in athymic
